Test results taken from US10881110B2, “Herbicidal compositions comprising isoxazolo[5,4-b]pyridines” (BASF SE, priority 2014, dated 2021).
Read-outs that look alike come from different tables or passages of the source.

Assays:
Experiment in all cases: greenhouse post-emergence herbicidal test
APESV = format: in vivo, Apera spica-venti; design: key to herbicidal activity against APESV found: rating on a scale from 0 to 100; settings: post emergence; for pest or weed control at 31.25 g/ha / pest or weed control at 62.5 g/ha / pest or weed control at 125 g/ha: Apera spica-venti, post-emergence, 480 h, read-out: herbicidal activity against APESV found
Method in brief: (§1)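 Plants were grown in loamy sand (approx. 4.6% humus, 69.9% sand) to 1–15 cm and sprayed post-emergence with actives suspended or emulsified in water, from a 10% by weight emulsion concentrate. Kept at 10-25° C or 20-35° C by species, damage was scored 0–100 at 20 days.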

CHEAL = format: in vivo, Chenopodium album
Method in brief: as §1

POLAV = format: in vivo, Polygonum aviculare; design: key: rating on a scale from 0 to 100
Protocol: The culture containers used were plastic pots containing medium loamy sand with approximately 4.6% of humus and 69.9% sand as substrate. The seeds of the test plants were sown separately for each species.
For the post-emergence treatment, the test plants were grown to a plant height of from 1 to 15 cm, depending on the plant habit, and only then treated with the active compounds which had been suspended or emulsified in water. To this end, the test plants were either sown directly, and grown in the same containers, or they were first grown separately as seedlings and transplanted into the test containers a few days prior to treatment.
Depending on the species, the plants were kept at 10-25° C. and 20-35° C., respectively.
The test period extended over 1 to 3 weeks. During this time, the plants were tended and their response to the individual treatments was evaluated 20 days after treatment except mentioned otherwise.
Evaluation was carried out using a scale from 0 to 100. 100 means no emergence of the plants, or complete destruction of at least the above-ground parts, and 0 means no damage or normal course of growth.
The respective stated components A and B, and, if appropriate, C, were formulated as a 10% by weight strength emulsion concentrate and, with addition of the amount of solvent system, introduced into the spray liquor used for applying the active compound. In the examples, the solvent used was water.
In the examples below, using the method of S. R. Colby (1967) “Calculating synergistic and antagonistic responses of herbicide combinations”, Weeds 15, p. 22 ff., the value E, which is expected if the activity of the individual active compounds is only additive, was calculated. E=X+Y−(X·Y/100)

ALOMY = format: in vivo, Alopecurus myosuroides; settings: Alopecurus myosuroides, post-emergence, 480 h, post emergence, read-out: herbicidal activity against ALOMY found
Method in brief: as §1

[1] = a.i. g/ha: I.1 6.9, B.67 62.5, 20 days after treatment
[2] = a.i. g/ha: I.1 15.6, B.190 62.5, 20 days after treatment

Question: How did the pest or weed control at 31.25 g/ha (APESV; I.1 alone 31.25 g/ha a.i.) turn out when `O=C(O)c1cc(C2CC2)nc2onc(C3CC3)c12` [I.1] was run?
Answer: 0%

Question: And the pest or weed control at 62.5 g/ha (APESV; I.1 alone 62.5 g/ha a.i.)?
Answer: 0%

Question: And the pest or weed control at 125 g/ha (APESV; I.1 alone 125 g/ha a.i.)?
Answer: 0%

Question: What about the pest or weed control at 31.25 g/ha (APESV; 31.25 g/ha a.i.) of the same compound?
Answer: 0%

Question: What about the pest or weed control at 62.5 g/ha (APESV; 62.5 g/ha a.i.) of the same compound?
Answer: 0%

Question: What about the pest or weed control at 125 g/ha (APESV; I.1 125 g/ha a.i.) of the same compound?
Answer: 15%

Question: What about the pest or weed control at 31.25 g/ha (APESV; single active, 31.25 g/ha a.i.) of the same compound?
Answer: 0%

Question: And the pest or weed control at 62.5 g/ha (APESV; single active, 62.5 g/ha a.i.)?
Answer: 0%

Question: What about the pest or weed control at 125 g/ha (APESV; single active, 125 g/ha a.i.) of the same compound?
Answer: 0%

Question: What about the “herbicidal activity against APESV found” value (APESV; I.1 15.62 g/ha, B.88 1 g/ha a.i.) of the same compound?
Answer: 0

Question: And the “herbicidal activity against APESV found” value (APESV; I.1 15.62 g/ha, B.95 1 g/ha a.i.)?
Answer: 0

Question: What about the “herbicidal activity against APESV found” value (APESV; I.1 31.25 g/ha, B.88 1 g/ha a.i.) of the same compound?
Answer: 0

Question: And the “herbicidal activity against APESV found” value (APESV; I.1 31.25 g/ha, B.88 2 g/ha a.i.)?
Answer: 0

Question: And the “herbicidal activity against APESV found” value (APESV; I.1 62.5 g/ha, B.88 1 g/ha a.i.)?
Answer: 10

Question: And the “herbicidal activity against APESV found” value (APESV; I.1 62.5 g/ha, B.88 2 g/ha a.i.)?
Answer: 10

Question: And the “herbicidal activity against APESV found” value (APESV; I.1 62.5 g/ha, B.95 1 g/ha a.i.)?
Answer: 10

Question: And the “herbicidal activity against APESV found” value (APESV; a.i. g/ha: I.1 2.3, B.67 62.5, 20 days after treatment)?
Answer: 0%

Question: And the “herbicidal activity against APESV found” value (APESV; [1])?
Answer: 0%

Question: And the “herbicidal activity against APESV found” value (APESV; applied alone at 31.25 g/ha a.i.)?
Answer: 0

Question: And the “herbicidal activity against APESV found” value (APESV; applied alone at 125 g/ha a.i.)?
Answer: 15

Question: And the “herbicidal activity against APESV found” value (APESV; g/ha a.i.: I.1 31.25, B.24 1, mixture 31.25+1)?
Answer: 20

Question: What about the “herbicidal activity against APESV found” value (APESV; g/ha a.i.: I.1 62.5, B.20 4, mixture 62.5+4) of the same compound?
Answer: 20

Question: What about the “herbicidal activity against APESV found” value (APESV; g/ha a.i.: I.1 62.5, B.52 2.5, mixture 62.5+2.5) of the same compound?
Answer: 20

Question: And the “herbicidal activity against APESV found” value (APESV; g/ha a.i.: I.1 125, B.52 2.5, mixture 125+2.5)?
Answer: 35

Question: And the “herbicidal activity against CHEAL found” value (CHEAL; [1])?
Answer: 0%

Question: What about the “herbicidal activity against CHEAL found” value (CHEAL; [2]) of the same compound?
Answer: 70%

Question: And the “herbicidal activity against CHEAL found” value (CHEAL; a.i. g/ha: I.1 15.6, B.67 125, 20 days after treatment)?
Answer: 0%

Question: What about the “herbicidal activity against CHEAL found” value (CHEAL; a.i. g/ha: I.1 20.8, B.192 62.5, 20 days after treatment) of the same compound?
Answer: 85%

Question: What about the “herbicidal activity against CHEAL found” value (CHEAL; a.i. g/ha: I.1 20.8, B.67 62.5, 20 days after treatment) of the same compound?
Answer: 85%

Question: And the “herbicidal activity against CHEAL found” value (CHEAL; a.i. g/ha: I.1 31.25, B.67 125, 20 days after treatment)?
Answer: 65%

Question: What about the “herbicidal activity against CHEAL found” value (CHEAL; a.i. g/ha: I.1 31.25, B.69 25, 20 days after treatment) of the same compound?
Answer: 30%

Question: And the “herbicidal activity against CHEAL found” value (CHEAL; a.i. g/ha: I.1 31.25, B.76 225, 20 days after treatment)?
Answer: 30%

Question: What about the “herbicidal activity against CHEAL found” value (CHEAL; a.i. g/ha: I.1 62.5, B.69 25, 20 days after treatment) of the same compound?
Answer: 60%

Question: And the “herbicidal activity against CHEAL found” value (CHEAL; a.i. g/ha: I.1 62.5, B.76 225, 20 days after treatment)?
Answer: 60%

Question: And the “herbicidal activity against CHEAL found” value (CHEAL; a.i. g/ha: I.1 62.5, B.82 31.25, 20 days after treatment)?
Answer: 60%

Question: What about the “herbicidal activity against POLAV found” value (POLAV; 62.5 g/ha a.i.) of the same compound?
Answer: 65

Question: And the “herbicidal activity against POLAV found” value (POLAV; 125 g/ha a.i.)?
Answer: 65

Question: What about the “herbicidal activity against POLAV found” value (POLAV; 6 days after treatment, g/ha a.i.: I.1 31.25, naptalam 50, mixture 31.25+50) of the same compound?
Answer: 70

Question: What about the “herbicidal activity against POLAV found” value (POLAV; 6 days after treatment, g/ha a.i.: I.1 31.25, naptalam 200, mixture 31.25+200) of the same compound?
Answer: 70

Question: What about the “herbicidal activity against POLAV found” value (POLAV; 6 days after treatment, g/ha a.i.: I.1 62.5, B.96 70, mixture 62.5+70) of the same compound?
Answer: 70

Question: And the “herbicidal activity against POLAV found” value (POLAV; 6 days after treatment, g/ha a.i.: I.1 62.5, B.96 140, mixture 62.5+140)?
Answer: 70

Question: And the “herbicidal activity against POLAV found” value (POLAV; 6 days after treatment, g/ha a.i.: I.1 62.5, naptalam 50, mixture 62.5+50)?
Answer: 70

Question: What about the “herbicidal activity against POLAV found” value (POLAV; 6 days after treatment, g/ha a.i.: I.1 62.5, naptalam 100, mixture 62.5+100) of the same compound?
Answer: 70

Question: What about the “herbicidal activity against POLAV found” value (POLAV; 6 days after treatment, g/ha a.i.: I.1 62.5, naptalam 200, mixture 62.5+200) of the same compound?
Answer: 70

Question: What about the “herbicidal activity against POLAV found” value (POLAV; [2]) of the same compound?
Answer: 45%

Question: What about the “herbicidal activity against POLAV found” value (POLAV; a.i. g/ha: I.1 31.25, bentazon Na 125, 20 days after treatment) of the same compound?
Answer: 80%

Question: What about the pest or weed control at 31.25 g/ha (ALOMY; I.1 alone 31.25 g/ha a.i.) of the same compound?
Answer: 0%

Question: And the pest or weed control at 31.25 g/ha (ALOMY; I.1 31.25 g/ha a.i.)?
Answer: 0%

Question: And the pest or weed control at 62.5 g/ha (ALOMY; I.1 62.5 g/ha a.i.)?
Answer: 0%

Question: And the pest or weed control at 125 g/ha (ALOMY; I.1 125 g/ha a.i.)?
Answer: 25%

Question: And the pest or weed control at 15.62 g/ha (ALOMY; single active, 15.62 g/ha a.i.)?
Answer: 0%
